≈ marks a conversion by molar mass, not a printed value. Read-outs that look alike come from different tables or passages of the source.
Columns and labels:
MRSA (NRS70, NRS119) = assay: MIC against MRSA strains; format: cell-based, Staphylococcus aureus; details: Staphylococcus aureus
Fusobacterium nucleatum = assay: MIC against gut bacterium Fusobacterium nucleatum; format: cell-based; details: Fusobacterium nucleatum, Fusobacterium nucleatum strain HM-992; Table 7; read-out: MIC
Corynebacterium spp. = assay: MIC against gut bacterium Corynebacterium spp.; format: cell-based; details: Corynebacterium, Corynebacterium spp. strain HM-784; Table 7
Veillonella sp. HM-49 = assay: MIC against gut bacterium Veillonella sp.; format: cell-based; details: SP.HM49; Veillonella sp. strain HM-49; Table 7; read-out: MIC
Eubacterium sp. = assay: MIC against gut bacterium Eubacterium sp.; format: cell-based; details: Eubacterium, Eubacterium sp. strain HM-178; Table 7; read-out: MIC
Lactobacillus gasseri = assay: MIC against gut bacterium Lactobacillus gasseri; format: cell-based; details: Lactobacillus gasseri strain HM-644; Table 7; read-out: MIC
Bifidobacterium longum = assay: MIC against gut bacterium Bifidobacterium longum; format: cell-based; details: Bifidobacterium longum, Bifidobacterium longum strain HM-846; Table 7; read-out: MIC
S. aureus ATCC29213 = assay: MIC against MSSA; format: cell-based, Staphylococcus aureus; details: Staphylococcus aureus; MSSA ATCC 29213; Table 10, unit inferred; read-out: Activity (MIC) against S. aureus
Lactobacillus reuteri = assay: MIC against gut bacterium Lactobacillus reuteri; format: cell-based; details: Limosilactobacillus reuteri; Lactobacillus reuteri strain HM-102; Table 7; read-out: MIC
Bacteroides fragilis = assay: MIC against gut bacterium Bacteroides fragilis; format: cell-based; details: Bacteroides fragilis, Bacteroides fragilis strain HM-709; Table 7; read-out: MIC
E. faecium NCTC7171 = assay: MIC against E. faecium; format: cell-based, Enterococcus faecium; details: Enterococcus faecium, NCTC7171; E. faecium NCTC 7171; Table 10, unit inferred; read-out: Activity (MIC) against E. faecium
C. difficile = assay: MIC by broth microdilution against C. difficile strains; format: cell-based, Clostridioides difficile; details: for MIC: Clostridioides difficile

O=C(Nc1ncco1)c1ccnc(-c2ccc(Cl)c(Cl)c2)c1 [Compound 4, 2-(3,4-Dichlorophenyl)-N-(oxazol-2-yl)isonicotinamide] gave an MIC (MRSA (NRS70, NRS119); MRSA NRS70, Table 7, read-out: MIC) of 0.25 mg/L (≈ 0.748 µM), an MIC (MRSA (NRS70, NRS119); NRS70 strain, Table 2 (SAR^1), read-out: MIC MRSA) of 0.25 mg/L (≈ 0.748 µM) and an MIC (MRSA (NRS70, NRS119); NRS70 strain, Table 3 (SAR^2 and SAR^3), read-out: MIC MRSA) of 0.25 mg/L (≈ 0.748 µM). For the same compound, the MIC (Fusobacterium nucleatum) was 8 mg/L (≈ 23.9 µM), the MIC (Corynebacterium spp.) was 0.5 mg/L (≈ 1.5 µM) and the MIC (Veillonella sp. HM-49) was 4 mg/L (≈ 12 µM). The MIC (Eubacterium sp.) was > 16 mg/L, the MIC (Lactobacillus gasseri) was > 16 mg/L and the MIC (Bifidobacterium longum) was > 16 mg/L. The MIC (S. aureus ATCC29213) was 0.06 mg/L (≈ 0.18 µM), the MIC (Lactobacillus reuteri) was 8 mg/L (≈ 23.9 µM) and the MIC (Bacteroides fragilis) was 1 mg/L (≈ 2.99 µM). It also gave an MIC (E. faecium NCTC7171) of 0.06 mg/L (≈ 0.18 µM), an MIC (C. difficile; ATCC43255, ATCC 43255, ribotype 087, Table 2 (SAR^1), read-out: MIC C. difficile) of 0.25 mg/L (≈ 0.748 µM) and an MIC (C. difficile; ATCC43255, ATCC 43255, ribotype 087, Table 3 (SAR^2 and SAR^3), read-out: MIC C. difficile) of 0.25 mg/L (≈ 0.748 µM). It also gave an MIC (C. difficile; ATCC43255, C. difficile ATCC43255, Table 7, read-out: MIC) of 0.25 mg/L (≈ 0.748 µM), an MIC (C. difficile; ATCC43255, C. difficile ATCC 43255, read-out: MIC against C. difficile) of 0.25 mg/L (≈ 0.748 µM) and an MIC (C. difficile; ATCC43598, C. difficile ATCC43598, Table 7, read-out: MIC) of 0.0625 mg/L (≈ 0.187 µM). The MIC (C. difficile; BAA1801, C. difficile BAA-1801, Table 7, read-out: MIC) was 0.25 mg/L (≈ 0.748 µM), the MIC (C. difficile; BAA1803, C. difficile BAA-1803, Table 7, read-out: MIC) was 0.5 mg/L (≈ 1.5 µM) and the MIC (C. difficile; BAA1804, C. difficile BAA-1804, Table 7, read-out: MIC) was 0.0625 mg/L (≈ 0.187 µM). The MIC (C. difficile; BAA1812, C. difficile BAA-1812, Table 7, read-out: MIC) was 0.125 mg/L (≈ 0.374 µM), the MIC (C. difficile; BAA1814, C. difficile BAA-1814, Table 7, read-out: MIC) was 0.125 mg/L (≈ 0.374 µM) and the MIC (C. difficile; BAA1870, C. difficile BAA-1870, Table 7, read-out: MIC) was ≤ 0.25 mg/L. It also gave an MIC (C. difficile; C. difficile 23691 (VR, vancomycin-resistant), Table 7, read-out: MIC) of 0.25 mg/L (≈ 0.748 µM), an MIC (C. difficile; C. difficile 23828 (FR, fidaxomicin-resistant), Table 7, read-out: MIC) of 0.125 mg/L (≈ 0.374 µM) and an MIC (C. difficile; C. difficile 24531 (VR, vancomycin-resistant), Table 7, read-out: MIC) of 0.125 mg/L (≈ 0.374 µM). For the same compound, the MIC (C. difficile; C. difficile 24923 (VR, vancomycin-resistant), Table 7, read-out: MIC) was 0.125 mg/L (≈ 0.374 µM), the MIC (C. difficile; C. difficile 26675 (MR, metronidazole-resistant), Table 7, read-out: MIC) was 0.25 mg/L (≈ 0.748 µM) and the MIC (C. difficile; C. difficile 27081 (FR, fidaxomicin-resistant), Table 7, read-out: MIC) was 0.125 mg/L (≈ 0.374 µM). For the same compound, the MIC (C. difficile; C. difficile 27173 (MR, metronidazole-resistant), Table 7, read-out: MIC) was 0.125 mg/L (≈ 0.374 µM), the MIC (C. difficile; C. difficile NR49292, Table 7, read-out: MIC) was 0.125 mg/L (≈ 0.374 µM) and the MIC (C. difficile; C. difficile NR49294, Table 7, read-out: MIC) was 0.0625 mg/L (≈ 0.187 µM). For the same compound, the MIC (C. difficile; C. difficile NR49302, Table 7, read-out: MIC) was 0.0625 mg/L (≈ 0.187 µM), the MIC (C. difficile; C. difficile NR49305, Table 7, read-out: MIC) was 0.125 mg/L (≈ 0.374 µM) and the MIC (C. difficile; C. difficile NR49310, Table 7, read-out: MIC) was 0.0625 mg/L (≈ 0.187 µM). For the same compound, the MIC (C. difficile; C. difficile NR49318, Table 7, read-out: MIC) was 0.125 mg/L (≈ 0.374 µM), the MIC (C. difficile; C. difficile, Table 8, read-out: MIC) was 0.25 mg/L (≈ 0.748 µM) and the Selectivity (C. difficile; MIC MRSA NRS70/MIC C. difficile ATCC43255, Table 7) was 1. It also gave a Selectivity (C. difficile; MIC MRSA/MIC C. difficile, Table 3) of 1 and a Selectivity (C. difficile; Table 8) of 1.
